Measured values published in the kinase profiling compilation of Christmann-Franck et al. (2016).

Legend:
Assay in all cases: Caliper, Mobility shift assay off-chip
[1] = molecular target: MAPK1 (human) (UniProt P28482)
[2] = molecular target: AKT3 (human) (UniProt Q9Y243)
[3] = molecular target: TLK2 (human) (UniProt Q86UE8)
[4] = test system: EGFR (human), P00533 [T790M]
[5] = molecular target: MAPKAPK3 (human) (UniProt Q16644)
[6] = molecular target: HIPK1 (human) (UniProt Q86Z02)
[7] = molecular target: CDK9 CCNT1 (human) (UniProt O60563+P50750)
[8] = molecular target: BMX (human) (UniProt P51813)
[9] = molecular target: NEK3 (human) (UniProt P51956)
[10] = molecular target: STK24 (human) (UniProt Q9Y6E0)
[11] = molecular target: GSK3B (human) (UniProt P49841)
[12] = molecular target: MAPK10 (human) (UniProt P53779)
[13] = molecular target: PDGFRB (human) (UniProt P09619)
[14] = molecular target: EPHB1 (human) (UniProt P54762)
[15] = molecular target: GSG2 (human) (UniProt Q8TF76)
[16] = molecular target: LIMK1 (human) (UniProt P53667)
[17] = molecular target: CAMK2B (human) (UniProt Q13554)
[18] = molecular target: PTK2B (human) (UniProt Q14289)
[19] = molecular target: PRKCB2 (human) (UniProt P05771)
[20] = molecular target: CDK2 CCNE1 (human) (UniProt P24864+P24941)
[21] = molecular target: FES (human) (UniProt P07332)
[22] = test system: EGFR (human), P00533 [L858R]
[23] = molecular target: GRK6 (human) (UniProt P43250)
[24] = molecular target: FGFR2 (human) (UniProt P21802)
[25] = molecular target: ROCK2 (human) (UniProt O75116)
[26] = molecular target: CDK7 CCNH MNAT1 (human) (UniProt P50613+P51948+P51946)
[27] = molecular target: PRKD1 (human) (UniProt Q15139)
[28] = molecular target: LYN (human) (UniProt P07948)
[29] = molecular target: CSNK2A2 (human) (UniProt P19784)
[30] = molecular target: MAP2K6 (human) (UniProt P52564)
[31] = test system: EGFR (human), P00533 [T790M/L858R]
[32] = molecular target: HIPK3 (human) (UniProt Q9H422)
[33] = molecular target: EPHA1 (human) (UniProt P21709)
[34] = molecular target: CHEK2 (human) (UniProt O96017)
[35] = molecular target: WNK2 (human) (UniProt Q9Y3S1)
[36] = molecular target: RPS6KA2 KD1 KD2 (human) (UniProt Q15349)
[37] = molecular target: CSNK1G3 (human) (UniProt Q9Y6M4)
[38] = molecular target: SIK1 (human) (UniProt P57059)
[39] = molecular target: DAPK2 (human) (UniProt Q9UIK4)
[40] = molecular target: EPHA7 (human) (UniProt Q15375)

MAPK1 (human), sequence (P28482 whole entry, looked up): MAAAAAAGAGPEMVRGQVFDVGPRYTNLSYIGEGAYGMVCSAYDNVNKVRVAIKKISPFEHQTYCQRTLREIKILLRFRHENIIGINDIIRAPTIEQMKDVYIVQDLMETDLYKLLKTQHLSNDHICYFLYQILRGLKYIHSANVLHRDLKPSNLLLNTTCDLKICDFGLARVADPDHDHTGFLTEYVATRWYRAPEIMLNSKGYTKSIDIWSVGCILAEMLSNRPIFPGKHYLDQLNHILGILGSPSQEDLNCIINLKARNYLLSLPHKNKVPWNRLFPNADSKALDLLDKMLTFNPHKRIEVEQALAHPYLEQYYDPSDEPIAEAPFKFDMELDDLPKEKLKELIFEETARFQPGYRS
GSK3B (human), sequence (P49841 whole entry, looked up): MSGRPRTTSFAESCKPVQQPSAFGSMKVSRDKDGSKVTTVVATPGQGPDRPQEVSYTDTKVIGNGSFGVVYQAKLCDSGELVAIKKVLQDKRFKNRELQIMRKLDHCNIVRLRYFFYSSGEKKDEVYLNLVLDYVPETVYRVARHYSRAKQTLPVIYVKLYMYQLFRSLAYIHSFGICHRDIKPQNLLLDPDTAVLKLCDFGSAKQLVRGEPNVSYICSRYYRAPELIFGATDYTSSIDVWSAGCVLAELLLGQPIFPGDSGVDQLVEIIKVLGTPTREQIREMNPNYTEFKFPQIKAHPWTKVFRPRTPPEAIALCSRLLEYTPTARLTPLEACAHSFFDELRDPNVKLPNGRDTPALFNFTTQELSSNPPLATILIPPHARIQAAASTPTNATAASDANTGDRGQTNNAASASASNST
CDK7 CCNH MNAT1 (human), sequence (P50613 whole entry, looked up): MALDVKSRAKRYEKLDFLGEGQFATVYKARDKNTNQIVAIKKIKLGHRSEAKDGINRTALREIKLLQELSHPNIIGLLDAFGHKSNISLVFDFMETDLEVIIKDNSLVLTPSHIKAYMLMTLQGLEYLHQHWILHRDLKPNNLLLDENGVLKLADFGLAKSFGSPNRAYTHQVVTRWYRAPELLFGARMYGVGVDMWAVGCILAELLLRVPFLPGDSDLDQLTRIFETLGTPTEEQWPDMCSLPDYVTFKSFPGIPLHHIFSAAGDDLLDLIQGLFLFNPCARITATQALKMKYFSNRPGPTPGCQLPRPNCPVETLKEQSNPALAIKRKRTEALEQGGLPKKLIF
CDK7 CCNH MNAT1 (human), sequence (P51946 whole entry, looked up): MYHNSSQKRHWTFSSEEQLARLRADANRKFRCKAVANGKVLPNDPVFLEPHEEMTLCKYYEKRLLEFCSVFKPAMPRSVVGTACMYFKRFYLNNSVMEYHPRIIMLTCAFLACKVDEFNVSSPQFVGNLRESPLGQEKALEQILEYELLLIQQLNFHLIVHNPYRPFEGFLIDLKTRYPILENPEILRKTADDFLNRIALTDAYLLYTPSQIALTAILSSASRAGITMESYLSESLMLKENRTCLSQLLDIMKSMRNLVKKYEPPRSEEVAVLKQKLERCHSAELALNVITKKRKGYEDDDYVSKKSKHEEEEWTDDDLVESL
CDK7 CCNH MNAT1 (human), sequence (P51948 whole entry, looked up): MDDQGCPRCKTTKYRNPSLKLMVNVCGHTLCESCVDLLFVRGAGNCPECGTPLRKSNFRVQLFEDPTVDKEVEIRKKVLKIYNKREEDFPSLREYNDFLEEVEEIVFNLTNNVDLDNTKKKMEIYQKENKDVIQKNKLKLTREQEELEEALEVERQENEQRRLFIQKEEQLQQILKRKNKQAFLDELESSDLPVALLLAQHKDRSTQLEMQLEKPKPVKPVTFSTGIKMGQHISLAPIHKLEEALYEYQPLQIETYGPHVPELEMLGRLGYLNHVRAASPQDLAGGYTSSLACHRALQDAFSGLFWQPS
MAP2K6 (human), sequence (P52564 whole entry, looked up): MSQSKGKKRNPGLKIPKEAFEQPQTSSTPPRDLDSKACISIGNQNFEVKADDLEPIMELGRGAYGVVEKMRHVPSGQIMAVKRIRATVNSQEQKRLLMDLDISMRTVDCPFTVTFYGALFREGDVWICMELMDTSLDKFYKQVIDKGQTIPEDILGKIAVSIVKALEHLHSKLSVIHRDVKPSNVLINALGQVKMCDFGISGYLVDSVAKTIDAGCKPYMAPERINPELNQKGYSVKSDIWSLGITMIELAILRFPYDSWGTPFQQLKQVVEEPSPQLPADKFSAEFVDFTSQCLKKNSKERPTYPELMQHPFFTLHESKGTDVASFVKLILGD
TLK2 (human), sequence (Q86UE8 whole entry, looked up): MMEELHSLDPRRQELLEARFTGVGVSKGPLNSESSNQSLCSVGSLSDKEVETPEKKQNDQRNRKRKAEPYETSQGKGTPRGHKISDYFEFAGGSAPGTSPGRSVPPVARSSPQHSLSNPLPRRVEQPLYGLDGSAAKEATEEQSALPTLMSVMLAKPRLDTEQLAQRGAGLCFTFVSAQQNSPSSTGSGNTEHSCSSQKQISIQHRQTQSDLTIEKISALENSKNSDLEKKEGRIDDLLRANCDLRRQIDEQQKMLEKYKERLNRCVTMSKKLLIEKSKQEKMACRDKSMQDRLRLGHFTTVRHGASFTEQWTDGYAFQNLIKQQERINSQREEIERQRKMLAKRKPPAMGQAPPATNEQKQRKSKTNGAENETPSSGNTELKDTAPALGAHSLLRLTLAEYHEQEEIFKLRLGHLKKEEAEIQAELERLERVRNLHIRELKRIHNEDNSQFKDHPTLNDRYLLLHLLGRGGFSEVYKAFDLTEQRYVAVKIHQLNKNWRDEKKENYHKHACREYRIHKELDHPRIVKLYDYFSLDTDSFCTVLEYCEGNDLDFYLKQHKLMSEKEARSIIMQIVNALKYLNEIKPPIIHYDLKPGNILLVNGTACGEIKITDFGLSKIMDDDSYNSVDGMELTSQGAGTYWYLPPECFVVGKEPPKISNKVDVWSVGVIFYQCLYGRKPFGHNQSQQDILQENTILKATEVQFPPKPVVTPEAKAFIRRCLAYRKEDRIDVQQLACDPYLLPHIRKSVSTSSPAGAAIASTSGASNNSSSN
CAMK2B (human), sequence (Q13554 whole entry, looked up): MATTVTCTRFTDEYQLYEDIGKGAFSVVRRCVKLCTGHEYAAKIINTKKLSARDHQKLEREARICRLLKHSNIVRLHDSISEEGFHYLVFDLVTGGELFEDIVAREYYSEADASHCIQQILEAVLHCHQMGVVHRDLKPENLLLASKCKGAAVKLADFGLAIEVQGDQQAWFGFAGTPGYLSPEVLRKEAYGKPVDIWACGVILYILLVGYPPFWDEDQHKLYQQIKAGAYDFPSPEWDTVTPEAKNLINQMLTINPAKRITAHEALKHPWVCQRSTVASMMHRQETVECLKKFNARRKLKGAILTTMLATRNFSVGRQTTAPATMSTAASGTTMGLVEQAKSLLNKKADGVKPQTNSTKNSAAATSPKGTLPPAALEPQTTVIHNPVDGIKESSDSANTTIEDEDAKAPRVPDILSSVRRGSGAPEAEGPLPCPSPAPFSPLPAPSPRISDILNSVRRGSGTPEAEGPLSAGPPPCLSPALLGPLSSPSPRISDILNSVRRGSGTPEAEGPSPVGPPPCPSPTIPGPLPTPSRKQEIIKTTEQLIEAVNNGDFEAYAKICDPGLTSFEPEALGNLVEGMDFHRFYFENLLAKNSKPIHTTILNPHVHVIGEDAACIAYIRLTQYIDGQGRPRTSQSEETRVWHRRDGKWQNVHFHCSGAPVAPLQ
PRKCB2 (human), sequence (P05771 whole entry, looked up): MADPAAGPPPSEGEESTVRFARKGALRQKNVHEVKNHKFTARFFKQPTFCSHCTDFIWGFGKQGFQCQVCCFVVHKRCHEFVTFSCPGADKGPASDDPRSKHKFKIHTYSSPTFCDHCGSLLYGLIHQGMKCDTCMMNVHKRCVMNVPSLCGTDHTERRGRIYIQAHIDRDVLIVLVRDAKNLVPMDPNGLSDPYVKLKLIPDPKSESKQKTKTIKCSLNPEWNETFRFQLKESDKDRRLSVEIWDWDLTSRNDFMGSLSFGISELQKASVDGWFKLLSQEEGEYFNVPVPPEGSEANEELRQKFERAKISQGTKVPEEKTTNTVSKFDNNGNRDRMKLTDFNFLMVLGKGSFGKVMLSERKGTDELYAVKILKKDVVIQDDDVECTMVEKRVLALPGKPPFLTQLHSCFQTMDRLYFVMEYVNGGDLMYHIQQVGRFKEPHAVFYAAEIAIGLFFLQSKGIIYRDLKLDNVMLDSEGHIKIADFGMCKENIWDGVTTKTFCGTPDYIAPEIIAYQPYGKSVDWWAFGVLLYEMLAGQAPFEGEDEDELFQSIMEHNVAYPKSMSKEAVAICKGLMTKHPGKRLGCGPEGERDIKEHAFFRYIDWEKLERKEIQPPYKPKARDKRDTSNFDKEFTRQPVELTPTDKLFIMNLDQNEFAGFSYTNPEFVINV
CDK2 CCNE1 (human), sequence (P24864 whole entry, looked up, other chains not shown): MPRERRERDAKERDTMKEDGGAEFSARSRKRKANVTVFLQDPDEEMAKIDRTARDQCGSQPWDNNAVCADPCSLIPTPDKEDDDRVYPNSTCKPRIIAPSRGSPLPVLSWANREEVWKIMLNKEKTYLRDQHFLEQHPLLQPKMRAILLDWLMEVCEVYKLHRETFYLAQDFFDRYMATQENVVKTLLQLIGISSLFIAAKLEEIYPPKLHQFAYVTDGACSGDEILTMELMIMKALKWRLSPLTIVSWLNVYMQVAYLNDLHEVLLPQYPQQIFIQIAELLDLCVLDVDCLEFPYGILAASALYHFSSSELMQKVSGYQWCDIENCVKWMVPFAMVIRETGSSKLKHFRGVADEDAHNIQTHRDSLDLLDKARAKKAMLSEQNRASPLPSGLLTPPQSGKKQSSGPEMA
CSNK2A2 (human), sequence (P19784 whole entry, looked up): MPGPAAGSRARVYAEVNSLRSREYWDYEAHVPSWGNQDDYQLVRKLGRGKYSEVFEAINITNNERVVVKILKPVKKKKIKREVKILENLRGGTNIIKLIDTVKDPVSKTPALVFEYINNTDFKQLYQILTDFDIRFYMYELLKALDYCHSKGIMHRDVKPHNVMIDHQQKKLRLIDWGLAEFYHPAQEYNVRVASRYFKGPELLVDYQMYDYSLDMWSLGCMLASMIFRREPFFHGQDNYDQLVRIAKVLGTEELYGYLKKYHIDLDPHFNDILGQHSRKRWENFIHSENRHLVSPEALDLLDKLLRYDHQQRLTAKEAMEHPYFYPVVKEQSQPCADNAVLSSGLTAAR

With `CC(C)(C)c1nc2c3ccc(F)cc3c3c(=O)[nH]ccc3c2[nH]1` as the molecule, how does the residual activity ([1]; compound 10.0 µM) read?
The residual activity was 33%.

Which residual activity ([1]; compound 10.0 µM) does the source give for `COc1ccc(C#Cc2ccc3ncc4ncn(-c5ccc(CCN)cc5)c4c3c2)cc1` here?
The residual activity was 133%.

What about the residual activity ([2]; compound 10.0 µM) of the same molecule?
The residual activity was 26%.

And the residual activity ([3]; compound 10.0 µM)?
The residual activity was 106%.

What about the residual activity ([4]; compound 10.0 µM) of the same molecule?
The residual activity was 65%.

And the residual activity ([5]; compound 10.0 µM)?
The residual activity was 84%.

What about the residual activity ([6]; compound 10.0 µM) of the same molecule?
The residual activity was 78%.

What about the residual activity ([7]; compound 10.0 µM) of the same molecule?
The residual activity was 126%.

What about the residual activity ([8]; compound 10.0 µM) of the same molecule?
The residual activity was 25%.

And the residual activity ([9]; compound 10.0 µM)?
The residual activity was 88%.

And the residual activity ([10]; compound 10.0 µM)?
Its residual activity is 106%.

And the residual activity ([11]; compound 10.0 µM)?
Its residual activity is 118%.

And the residual activity ([12]; compound 10.0 µM)?
Its residual activity is 12%.

What about the residual activity ([13]; compound 10.0 µM) of the same molecule?
The residual activity was 77%.

And the residual activity ([14]; compound 10.0 µM)?
The residual activity was 110%.

What about the residual activity ([15]; compound 10.0 µM) of the same molecule?
Its residual activity is 0%.

And the residual activity ([16]; compound 10.0 µM)?
Its residual activity is 38%.

What about the residual activity ([17]; compound 10.0 µM) of the same molecule?
The residual activity was 6%.

And the residual activity ([18]; compound 10.0 µM)?
The residual activity was 47%.

What about the residual activity ([19]; compound 10.0 µM) of the same molecule?
Its residual activity is 118%.

What about the residual activity ([20]; compound 10.0 µM) of the same molecule?
Its residual activity is 99%.

And the residual activity ([21]; compound 10.0 µM)?
The residual activity was 69%.

What about the residual activity ([22]; compound 10.0 µM) of the same molecule?
Its residual activity is 50%.

What about the residual activity ([23]; compound 10.0 µM) of the same molecule?
The residual activity was 108%.

What about the residual activity ([24]; compound 10.0 µM) of the same molecule?
Its residual activity is 65%.

What about the residual activity ([25]; compound 10.0 µM) of the same molecule?
The residual activity was 67%.

What about the residual activity ([26]; compound 10.0 µM) of the same molecule?
The residual activity was 73%.

And the residual activity ([27]; compound 10.0 µM)?
Its residual activity is 32%.

What about the residual activity ([28]; compound 10.0 µM) of the same molecule?
The residual activity was 56%.

What about the residual activity ([29]; compound 10.0 µM) of the same molecule?
Its residual activity is 90%.

And the residual activity ([30]; compound 10.0 µM)?
Its residual activity is 33%.

What about the residual activity ([31]; compound 10.0 µM) of the same molecule?
Its residual activity is 68%.

And the residual activity ([32]; compound 10.0 µM)?
The residual activity was 90%.

And the residual activity ([33]; compound 10.0 µM)?
The residual activity was 80%.

What about the residual activity ([34]; compound 10.0 µM) of the same molecule?
The residual activity was 5%.

What about the residual activity ([35]; compound 10.0 µM) of the same molecule?
The residual activity was 65%.

And the residual activity ([36]; compound 10.0 µM)?
Its residual activity is 8%.

What about the residual activity ([37]; compound 10.0 µM) of the same molecule?
The residual activity was 2%.

What about the residual activity ([38]; compound 10.0 µM) of the same molecule?
Its residual activity is 25%.

What about the residual activity ([39]; compound 10.0 µM) of the same molecule?
Its residual activity is 85%.

What about the residual activity ([40]; compound 10.0 µM) of the same molecule?
Its residual activity is 118%.

`C[C@@H](Nc1nc2c(C#CC3CC3)c[nH]c(=O)c2c2cc(-c3cn[nH]c3)ccc12)C(C)(C)C` was tested. Which residual activity ([1]; compound 1.0 µM) did it give?
The residual activity was 99%.

And the residual activity ([2]; compound 1.0 µM)?
The residual activity was 102%.

And the residual activity ([3]; compound 1.0 µM)?
Its residual activity is 80%.

What about the residual activity ([4]; compound 1.0 µM) of the same molecule?
Its residual activity is 36%.

What about the residual activity ([5]; compound 1.0 µM) of the same molecule?
Its residual activity is 95%.

And the residual activity ([6]; compound 1.0 µM)?
The residual activity was 109%.

What about the residual activity ([7]; compound 1.0 µM) of the same molecule?
The residual activity was 96%.

And the residual activity ([8]; compound 1.0 µM)?
Its residual activity is 89%.

What about the residual activity ([9]; compound 1.0 µM) of the same molecule?
Its residual activity is 104%.

And the residual activity ([10]; compound 1.0 µM)?
Its residual activity is 125%.

What about the residual activity ([11]; compound 1.0 µM) of the same molecule?
The residual activity was 82%.

And the residual activity ([12]; compound 1.0 µM)?
The residual activity was 71%.

And the residual activity ([13]; compound 1.0 µM)?
Its residual activity is 102%.

What about the residual activity ([14]; compound 1.0 µM) of the same molecule?
Its residual activity is 104%.

What about the residual activity ([15]; compound 1.0 µM) of the same molecule?
Its residual activity is 158%.

And the residual activity ([16]; compound 1.0 µM)?
Its residual activity is 67%.

What about the residual activity ([17]; compound 1.0 µM) of the same molecule?
The residual activity was 78%.

What about the residual activity ([18]; compound 1.0 µM) of the same molecule?
The residual activity was 59%.

And the residual activity ([19]; compound 1.0 µM)?
Its residual activity is 105%.

What about the residual activity ([20]; compound 1.0 µM) of the same molecule?
Its residual activity is 116%.

And the residual activity ([21]; compound 1.0 µM)?
The residual activity was 92%.

And the residual activity ([22]; compound 1.0 µM)?
Its residual activity is 76%.

And the residual activity ([23]; compound 1.0 µM)?
The residual activity was 101%.

What about the residual activity ([24]; compound 1.0 µM) of the same molecule?
Its residual activity is 56%.

And the residual activity ([25]; compound 1.0 µM)?
Its residual activity is 29%.

And the residual activity ([26]; compound 1.0 µM)?
Its residual activity is 102%.

What about the residual activity ([27]; compound 1.0 µM) of the same molecule?
The residual activity was 86%.

And the residual activity ([28]; compound 1.0 µM)?
The residual activity was 72%.

And the residual activity ([29]; compound 1.0 µM)?
Its residual activity is 112%.

And the residual activity ([30]; compound 1.0 µM)?
The residual activity was 106%.

What about the residual activity ([31]; compound 1.0 µM) of the same molecule?
Its residual activity is 12%.

What about the residual activity ([32]; compound 1.0 µM) of the same molecule?
The residual activity was 104%.

What about the residual activity ([33]; compound 1.0 µM) of the same molecule?
The residual activity was 99%.

And the residual activity ([34]; compound 1.0 µM)?
The residual activity was 4%.

What about the residual activity ([35]; compound 1.0 µM) of the same molecule?
Its residual activity is 98%.

What about the residual activity ([36]; compound 1.0 µM) of the same molecule?
Its residual activity is 7%.

And the residual activity ([37]; compound 1.0 µM)?
Its residual activity is 113%.

What about the residual activity ([38]; compound 1.0 µM) of the same molecule?
Its residual activity is 23%.

And the residual activity ([39]; compound 1.0 µM)?
Its residual activity is 36%.

And the residual activity ([40]; compound 1.0 µM)?
Its residual activity is 102%.
